How the values were obtained:
PTRGER4 (EP4) = PTRGER4 (EP4) (Homo sapiens (Human), UniProt P35408); test: hEP4 b-arrestin assay (PathHunter HEK 293 PTGER4 b-arrestin cells); format: cell-based
In short: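 Antagonist mode: compound is given 15 min at 37 °C, then 20 nM (final) PGE2 for 120 min, in HEK293 cells stably expressing EP4 fused to ProLink and β-arrestin 2 fused to EA. Recruitment read as β-gal luminescence after 1 h reagent at room temperature, as percent of DMSO control.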

PTGER2 (EP2) = PTGER2 (EP2) (Homo sapiens (Human), UniProt P43116); test: hEP2 b-arrestin assay (PathHunter HEK 293 PTGER2 b-arrestin cells); format: cell-based
In short: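 Readout is β-galactosidase complementation luminescence, expressed as percent of DMSO control (duplicates). PathHunter HEK293 EP2/β-arrestin 2 cells, grown 24 h, received compound for 15 min at 37 °C before a 120 min challenge with PGE2 at 5 μM final, followed by 1 h detection at room temperature.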

[1] = hEP4 b-arrestin assay (values without asterisk)
[2] = hEP2 b-arrestin assay (values without asterisk)
[3] = antagonistic activity on hEP4, mean where measured multiple times
[4] = antagonistic activity on hEP2, mean where measured multiple times

Sequence of PTRGER4 (EP4) (P35408 whole entry, looked up, the tested form may be a part): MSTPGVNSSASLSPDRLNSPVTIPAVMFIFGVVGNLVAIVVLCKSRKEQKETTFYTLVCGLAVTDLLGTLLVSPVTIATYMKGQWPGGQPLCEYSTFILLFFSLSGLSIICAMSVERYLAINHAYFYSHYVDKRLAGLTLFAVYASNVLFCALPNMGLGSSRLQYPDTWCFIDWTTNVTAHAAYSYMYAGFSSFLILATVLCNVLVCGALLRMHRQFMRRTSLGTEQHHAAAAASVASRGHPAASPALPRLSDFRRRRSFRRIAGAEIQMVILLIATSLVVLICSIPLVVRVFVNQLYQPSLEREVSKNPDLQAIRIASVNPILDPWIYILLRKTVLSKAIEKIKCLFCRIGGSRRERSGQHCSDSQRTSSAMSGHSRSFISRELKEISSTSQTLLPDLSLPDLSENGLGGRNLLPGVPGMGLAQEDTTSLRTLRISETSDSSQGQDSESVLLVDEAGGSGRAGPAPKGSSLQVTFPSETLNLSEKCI
Sequence of PTGER2 (EP2) (P43116 whole entry): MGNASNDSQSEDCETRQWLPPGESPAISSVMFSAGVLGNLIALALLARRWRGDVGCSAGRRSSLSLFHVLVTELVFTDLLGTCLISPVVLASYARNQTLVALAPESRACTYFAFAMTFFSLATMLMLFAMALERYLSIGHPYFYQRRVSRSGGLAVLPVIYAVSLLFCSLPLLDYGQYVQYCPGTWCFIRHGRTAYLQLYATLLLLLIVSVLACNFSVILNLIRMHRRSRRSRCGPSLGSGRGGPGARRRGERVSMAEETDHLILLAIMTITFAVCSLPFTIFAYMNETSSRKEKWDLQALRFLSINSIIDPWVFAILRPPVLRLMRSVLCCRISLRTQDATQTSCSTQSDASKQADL

SMILES | IC50 (PTRGER4 (EP4); [1]) [nM] | IC50 (PTGER2 (EP2); [2]) [nM] | IC50 (PTRGER4 (EP4); [3]) [nM] | IC50 (PTGER2 (EP2); [4]) [nM]
COc1ccc(F)c2c1cc(C#N)n2CCNc1cc(-c2ccc(-c3cc(O)no3)cc2)ncn1 [Example 852, 7-Fluoro-1-(2-{6-[4-(3-hydroxy-isoxazol-5-yl)-phenyl]-pyrimidin-4-ylamino}-ethyl)-4-methoxy-1H-indole-2-carbonitrile] | 22 | 12 |  | 
Cc1cc(F)cc2c1cc(C)n2CCNc1cc(-c2cc(Cl)c(C(=O)O)s2)ncn1 [compound 19, 3-Chloro-5-{6-[2-(6-fluoro-2,4-dimethyl-indol-1-yl)-ethylamino]-pyrimidin-4-yl}-thiophene-2-carboxylic acid] |  |  | 99 | 17
COc1ccc(F)c2c1cc(C)n2CCNc1cc(-c2ccc3[nH]c(=O)[nH]c3c2)ncn1 [compound 115] |  |  | 742 | 56
Cc1cc(-c2cc(NCCn3c(C)cc4c(Cl)ccc(F)c43)ncn2)ccc1C(=O)O [compound 106] |  |  | 698 | 44
Cc1ccc(F)c2c1cc(C)n2CCNc1cc(-c2cc(Br)c(C(=O)O)cc2F)ncn1 [compound 126] |  |  | 928 | 128
Cc1ccc(F)c2c1cc(C)n2CCNc1cc(-c2ccc(S(=O)(=O)O)cc2)ncn1 [compound 37, 4-{6-[2-(7-Fluoro-2,4-dimethyl-indol-1-yl)-ethylamino]-pyrimidin-4-yl}-benzenesulfonic acid] |  |  | 436 | 34
CCOc1cc(-c2cc(NCCn3c(C#N)cc4c(OC)cc(F)c(F)c43)ncn2)sc1C(=O)O [Example 943, 5-{6-[2-(2-Cyano-6,7-difluoro-4-methoxy-indol-1-yl)-ethylamino]-pyrimidin-4-yl}-3-ethoxy-thiophene-2-carboxylic acid] | 2 | 4 |  | 
Cc1ccc(F)c2c1cc(C)n2CCNc1cc(-c2cc(Cl)c(C(=O)O)c(Cl)c2)ncn1 [compound 222] |  |  | 232 | 42
COc1ccc(F)c2c1cc(C)n2CCNc1cc(-c2cc(C)c(C(=O)O)c(C)c2)ncn1 [compound 289] |  |  | 299 | 53
Cc1ccc(F)c2c1cc(C)n2CCNc1cc(-c2ccc3c(c2)CN(C)C3=O)ncn1 [compound 95] |  |  | 167 | 59
COc1ccc(F)c2c1cc(C)n2CCNc1cc(-c2ccc3nc(C)oc3c2)ncn1 [compound 89] |  |  | 132 | 115
N#Cc1cc2c(Cl)cc(Cl)cc2n1CCNc1cc(-c2cc(F)c(C(=O)O)s2)ncn1 [Example 850, 5-{6-[2-(4,6-Dichloro-2-cyano-indol-1-yl)-ethylamino]-pyrimidin-4-yl}-3-fluoro-thiophene-2-carboxylic acid] | 79 | 2 |  | 
CCOc1cc(-c2cc(NCCn3c(C#N)cc4c(OC)ccc(F)c43)ncn2)ccc1CCC(=O)O [Example 924, 3-(4-{6-[2-(2-Cyano-7-fluoro-4-methoxy-indol-1-yl)-ethylamino]-pyrimidin-4-yl}-2-ethoxy-phenyl)-propionic acid] | 308 | 224 |  | 
COc1ccc(F)c2c1cc(C#N)n2CCNc1cc(-c2cc3cc(C(=O)O)ccc3[nH]2)ncn1 [Example 960, 2-{6-[2-(2-Cyano-7-fluoro-4-methoxy-indol-1-yl)-ethylamino]-pyrimidin-4-yl}-1H-indole-5-carboxylic acid] | 4 | 9 |  | 
CNc1cc(-c2cc(NCCn3c(C)cc4c(OC)cccc43)ncn2)ccc1C(=O)O [compound 213] |  |  | 204 | 3
Cc1cccc2c1cc(C)n2CCNc1cc(-c2ccc(C(=O)O)c(CC(C)C)c2)ncn1 [compound 140, 4-{6-[2-(2,4-Dimethyl-indol-1-yl)-ethylamino]-pyrimidin-4-yl}-2-isobutyl-benzoic acid] |  |  | 476 | 11
Cc1cc(F)cc2c1cc(C)n2CCNc1cc(-c2cc(Cl)c(C(=O)O)c(Cl)c2)ncn1 [compound 390] |  |  | 146 | 38
CCc1cc(-c2cc(NCCn3c(C)cc4cc(Cl)cc(F)c43)ncn2)sc1C(=O)O [compound 242] |  |  | 216 | 111
CCOc1cc(-c2cc(NCCn3c(C)cc4c(Cl)cc(Cl)c(F)c43)ncn2)sc1C(=O)O [Example 868, 5-{6-[2-(4,6-Dichloro-7-fluoro-2-methyl-indol-1-yl)-ethylamino]-pyrimidin-4-yl}-3-ethoxy-thiophene-2-carboxylic acid] | 7 | 1 |  | 
CCOc1cc(-c2cc(NCCn3c(C)cc4c(OC)ccc(F)c43)ncn2)sc1NC(=O)CCO [Example 1074, N-(3-Ethoxy-5-{6-[2-(7-fluoro-4-methoxy-2-methyl-indol-1-yl)-ethylamino]-pyrimidin-4-yl}-thiophen-2-yl)-3-hydroxy-propionamide] | 34 | 9 |  | 
COc1cc(-c2cc(NCCn3c(C)cc4c(OC)ccc(F)c43)ncn2)ccc1CC(=O)O [Example 886, (4-{6-[2-(7-Fluoro-4-methoxy-2-methyl-indol-1-yl)-ethylamino]-pyrimidin-4-yl}-2-methoxy-phenyl)-acetic acid] | 125 | 42 |  | 

SMILES | IC50 (PTRGER4 (EP4); [1]) [nM] | IC50 (PTGER2 (EP2); [2]) [nM] | IC50 (PTRGER4 (EP4); [3]) [nM] | IC50 (PTGER2 (EP2); [4]) [nM]
Cc1cc2cc(F)cc(F)c2n1CCNc1cc(-c2ccc(C(=O)O)c(CC(C)C)c2)ncn1 [compound 333, 4-{6-[2-(5,7-Difluoro-2-methyl-indol-1-yl)-ethylamino]-pyrimidin-4-yl}-2-isobutyl-benzoic acid] |  |  | 483 | 15
CCc1cc(-c2cc(NCCn3c(C)cc4c(C)ccc(F)c43)ncn2)cc(F)c1C(=O)O [compound 265] |  |  | 491 | 33
Cc1cc2ccccc2n1CCNc1cc(-c2ccc(C(=O)O)c(CC(C)C)c2)ncn1 [compound 119, 2-Isobutyl-4-{6-[2-(2-methyl-indol-1-yl)-ethylamino]-pyrimidin-4-yl}-benzoic acid] |  |  | 941 | 18
COc1ccc(F)c2c1cc(C)n2CCNc1cc(-c2ccc3[nH]c(C)nc3c2)ncn1 [compound 81, [2-(7-Fluoro-4-methoxy-2-methyl-indol-1-yl)-ethyl]-[6-(2-methyl-1H-benzoimidazol-5-yl)-pyrimidin-4-yl]-amine] |  |  | 86 | 44
COc1ccc(F)c2c1cc(C#N)n2CCNc1cc(-c2ccnc(N3CCC3)c2)ncn1 [Example 975, 1-{2-[6-(2-Azetidin-1-yl-pyridin-4-yl)-pyrimidin-4-ylamino]-ethyl}-7-fluoro-4-methoxy-1H-indole-2-carbonitrile] | 55 | 44 |  | 
COc1cccc2c1cc(C)n2CCNc1cc(-c2ccc3c(c2)CN(C)C3=O)ncn1 [compound 87] |  |  | 885 | 121
CCOc1cc(-c2cc(NCCn3c(C)cc4cc(Cl)cc(F)c43)ncn2)sc1C(=O)O [compound 237] |  |  | 68 | 13
CCCC1NC(=O)c2ccc(-c3cc(NCCn4c(C)cc5c(C)ccc(F)c54)ncn3)cc21 (racemic) [compound 322] |  |  | 295 | 55
COc1ccc(F)c2c1cc(C)n2CCNc1cc(-c2ccc(S(N)(=O)=O)c(C)c2)ncn1 [compound 171] |  |  | 231 | 112
COc1ccc(F)c2c1cc(C)n2CCNc1cc(-c2ccc(-c3csc(C)n3)cc2)ncn1 [compound 321] |  |  | 439 | 72
CCCc1cc(-c2cc(NCCn3c(C)cc4c(C)cccc43)ncn2)ccc1C(=O)O [compound 120, 4-{6-[2-(2,4-Dimethyl-indol-1-yl)-ethylamino]-pyrimidin-4-yl}-2-propyl-benzoic acid] |  |  | 495 | 6
CCCc1cc(-c2cc(NCCn3c(C)cc4c(F)ccc(Cl)c43)ncn2)cc(Cl)c1C(=O)O [compound 342, 2-Chloro-4-{6-[2-(7-chloro-4-fluoro-2-methyl-indol-1-yl)-ethylamino]-pyrimidin-4-yl}-6-propyl-benzoic acid] |  |  | 621 | 5
COc1ccc(F)c2c1cc(C#N)n2CCNc1cc(-c2ccnc(N3CCOCC3)c2)ncn1 [Example 1003, 7-Fluoro-4-methoxy-1-{2-[6-(2-morpholin-4-yl-pyridin-4-yl)-pyrimidin-4-ylamino]-ethyl}-1H-indole-2-carbonitrile] | 131 | 55 |  | 
COc1ccc(F)c2c1cc(C)n2CCNc1cc(-c2ccc(NC(N)=O)cc2)ncn1 [compound 132, (4-{6-[2-(7-Fluoro-4-methoxy-2-methyl-indol-1-yl)-ethylamino]-pyrimidin-4-yl}-phenyl)-urea] |  |  | 277 | 43
COc1ccc(F)c2c1cc(C)n2CCNc1cc(-c2cc(Cl)c(C(=O)O)c(Cl)c2)ncn1 [compound 293] |  |  | 113 | 19
CCN1Cc2cc(-c3cc(NCCn4c(C)cc5c(C)ccc(F)c54)ncn3)ccc2C1=O [compound 206] |  |  | 740 | 88
CNc1cc(-c2cc(NCCn3c(C)cc4c(F)ccc(C)c43)ncn2)ccc1C(=O)O [compound 211] |  |  | 394 | 2
Cc1cc2ccccc2n1CCNc1cc(-c2cc(Cl)c(C(=O)O)s2)ncn1 [compound 5] |  |  | 629 | 5
COc1ccc(F)c2c1cc(C#N)n2CCNc1cc(-c2ccc3c(c2)CNC(=O)N3)ncn1 [Example 970, 7-Fluoro-4-methoxy-1-{2-[6-(2-oxo-1,2,3,4-tetrahydro-quinazolin-6-yl)-pyrimidin-4-ylamino]-ethyl)-1H-indole-2-carbonitrile] | 27 | 31 |  | 
COc1cc(F)c(F)c2c1cc(C)n2CCNc1cc(-c2ccc3c(c2)CC(=O)N3)ncn1 [compound 199] |  |  | 166 | 102

— US12011444B2, “N-substituted indole derivatives as PGE2 receptor modulators” (Idorsia Pharmaceuticals Ltd, priority 2015, dated 2024)
